Experimental data taken from article PMC5290327, “SC83288 is a clinical development candidate for the treatment of severe malaria” (Nature Communications, 2017).
Several values for one entry are separate records, joined by “and”; a condition that tells them apart may be missing. Equal values may be shown once. Read-outs that look alike come from different tables or passages of the source.

Experiments:
[1] = target: CYP2A6 (Homo sapiens, UniProt P11509); assay: CYP inhibition, human liver microsomes; conditions: CYP2A6, coumarin to 7-OH-coumarin, 10 µM
Chain of CYP2A6 (P11509 whole entry): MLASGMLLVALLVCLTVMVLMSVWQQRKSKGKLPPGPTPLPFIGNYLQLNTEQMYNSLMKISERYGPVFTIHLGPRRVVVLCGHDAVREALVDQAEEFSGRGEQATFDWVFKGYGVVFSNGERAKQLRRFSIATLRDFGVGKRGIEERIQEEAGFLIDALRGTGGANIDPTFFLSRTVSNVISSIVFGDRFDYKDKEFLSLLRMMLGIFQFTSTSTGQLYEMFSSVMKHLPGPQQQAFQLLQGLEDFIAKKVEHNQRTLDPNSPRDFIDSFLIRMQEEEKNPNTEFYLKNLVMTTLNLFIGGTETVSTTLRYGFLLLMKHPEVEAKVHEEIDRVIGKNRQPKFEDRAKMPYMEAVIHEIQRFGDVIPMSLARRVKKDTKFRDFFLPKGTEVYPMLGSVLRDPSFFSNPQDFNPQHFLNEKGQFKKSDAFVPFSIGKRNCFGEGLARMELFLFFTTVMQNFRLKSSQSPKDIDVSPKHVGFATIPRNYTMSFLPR

[2] = target: T1, dopamine transporter (h) (Homo sapiens, UniProt Q01959); assay: Radioligand binding
T1 construct: Cerep (contract screening)
T1 sequence (Q01959 whole entry): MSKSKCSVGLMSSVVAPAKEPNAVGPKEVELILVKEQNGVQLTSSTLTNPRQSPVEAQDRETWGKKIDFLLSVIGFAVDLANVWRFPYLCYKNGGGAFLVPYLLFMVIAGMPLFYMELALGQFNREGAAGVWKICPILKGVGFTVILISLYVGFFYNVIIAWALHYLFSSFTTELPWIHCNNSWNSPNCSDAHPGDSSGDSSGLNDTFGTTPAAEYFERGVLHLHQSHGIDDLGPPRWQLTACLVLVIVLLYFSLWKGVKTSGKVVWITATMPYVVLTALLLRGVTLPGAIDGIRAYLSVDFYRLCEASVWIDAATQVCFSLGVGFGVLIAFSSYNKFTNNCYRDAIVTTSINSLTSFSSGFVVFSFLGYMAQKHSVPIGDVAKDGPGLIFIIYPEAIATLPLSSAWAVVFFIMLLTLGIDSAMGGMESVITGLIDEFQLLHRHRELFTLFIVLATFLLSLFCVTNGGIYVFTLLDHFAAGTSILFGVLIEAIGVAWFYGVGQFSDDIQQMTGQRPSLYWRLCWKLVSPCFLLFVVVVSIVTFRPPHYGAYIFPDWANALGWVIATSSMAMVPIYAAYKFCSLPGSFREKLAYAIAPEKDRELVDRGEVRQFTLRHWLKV

[3] = PK study; type: in vivo, mouse; conditions: for half-life: mouse; for MRT last: read-out: MRT0-t; for time of peak plasma concentration (Cmax): single i.p. dose in mice
Description: On the treatment day, all animals were weighed and the dosing volume was calculated for each individual animal according to its actual body weight. All animal were dosed once. Blood samples were taken at different time points and plasma was collected after centrifugation (10,000g, 10 min, 4 °C). Plasma samples were analysed by LC–MS/MS. […] All relevant observations were recorded. The PK studies in cynomolgus monkeys and beagle dogs were performed by the Laboratory of Pharmacology and Toxicology (LPT), Hamburg, and PK and toxicity studies in mice and rats were performed by the 4SC Discovery GmbH, Munich. PK parameters were obtained by a non-compartment analysis, using Kinetica 4.1 (Thermo Scientific).

[4] = tested on: Balb C 3T3 cells; assay: Cytotoxicity; conditions: 50 μM
[5] = target: T2, 5-HT transporter (h) (Homo sapiens, UniProt P31645); assay: Radioligand binding
T2 construct: Cerep (contract screening)
T2 sequence (P31645 whole entry): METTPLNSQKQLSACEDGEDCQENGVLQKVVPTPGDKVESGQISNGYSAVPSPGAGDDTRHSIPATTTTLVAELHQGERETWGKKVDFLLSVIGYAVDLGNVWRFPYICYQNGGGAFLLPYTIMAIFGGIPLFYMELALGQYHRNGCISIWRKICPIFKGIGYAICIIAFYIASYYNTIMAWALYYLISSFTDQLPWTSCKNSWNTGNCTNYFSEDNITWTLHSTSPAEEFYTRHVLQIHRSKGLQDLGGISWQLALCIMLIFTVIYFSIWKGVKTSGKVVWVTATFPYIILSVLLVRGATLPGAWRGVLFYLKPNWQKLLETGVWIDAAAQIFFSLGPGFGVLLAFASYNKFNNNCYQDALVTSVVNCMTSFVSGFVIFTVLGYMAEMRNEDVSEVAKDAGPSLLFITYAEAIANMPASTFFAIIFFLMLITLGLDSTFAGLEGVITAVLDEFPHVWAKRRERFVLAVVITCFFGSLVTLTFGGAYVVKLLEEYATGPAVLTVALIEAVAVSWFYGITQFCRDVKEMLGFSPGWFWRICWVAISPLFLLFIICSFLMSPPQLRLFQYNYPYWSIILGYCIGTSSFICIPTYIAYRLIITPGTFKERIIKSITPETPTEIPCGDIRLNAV

[6] = target: T3, 5-HT6 (h) (Homo sapiens, UniProt P50406); assay: Radioligand binding
T3 construct: Cerep (contract screening)
T3 sequence (P50406 whole entry): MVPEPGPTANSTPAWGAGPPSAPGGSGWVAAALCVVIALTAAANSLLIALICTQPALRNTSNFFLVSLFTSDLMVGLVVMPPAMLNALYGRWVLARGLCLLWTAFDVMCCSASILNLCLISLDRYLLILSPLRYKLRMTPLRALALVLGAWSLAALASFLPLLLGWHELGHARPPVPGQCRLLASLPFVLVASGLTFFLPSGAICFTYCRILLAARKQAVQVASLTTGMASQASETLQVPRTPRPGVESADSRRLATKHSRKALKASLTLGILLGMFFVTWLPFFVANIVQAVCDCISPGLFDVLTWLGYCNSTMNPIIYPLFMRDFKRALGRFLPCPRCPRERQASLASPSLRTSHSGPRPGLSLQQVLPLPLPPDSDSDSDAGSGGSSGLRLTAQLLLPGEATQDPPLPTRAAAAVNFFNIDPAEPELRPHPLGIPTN

[7] = target: T4, NOP (ORL1) (h) (Homo sapiens, UniProt P41146); assay: Radioligand binding
T4 construct: Cerep

[8] = tested on: Dd2 P. falciparum parasites; assay: In vitro parasite reduction ratio assay (Sanz protocol); type: cell-based, Plasmodium falciparum; conditions: for In vitro PCT99.9% / In vitro lag phase: 10 times IC50, Dd2; for parasites killed within the first 48 h of treatment: in vitro assay and NSG mouse model
[9] = target: T5, ETA (h) (Homo sapiens, UniProt P25101); assay: Radioligand binding
T5 construct: Cerep
T5 sequence (P25101 21-427): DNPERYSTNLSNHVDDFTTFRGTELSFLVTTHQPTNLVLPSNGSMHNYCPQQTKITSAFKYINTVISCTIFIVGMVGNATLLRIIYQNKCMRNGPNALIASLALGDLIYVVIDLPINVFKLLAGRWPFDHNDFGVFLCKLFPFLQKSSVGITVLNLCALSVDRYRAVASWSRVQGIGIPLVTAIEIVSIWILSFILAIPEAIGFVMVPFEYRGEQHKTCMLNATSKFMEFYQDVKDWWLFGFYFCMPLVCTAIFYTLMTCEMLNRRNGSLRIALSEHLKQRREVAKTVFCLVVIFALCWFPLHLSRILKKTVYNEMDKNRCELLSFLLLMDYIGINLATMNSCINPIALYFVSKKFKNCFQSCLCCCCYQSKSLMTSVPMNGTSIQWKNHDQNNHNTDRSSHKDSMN

[10] = target: T6, VPAC1 (VIP1) (h) (Homo sapiens, UniProt P32241); assay: Radioligand binding
T6 construct: Cerep (contract screening)

[11] = tested on: P. falciparum strain Thai19; assay: Growth inhibition assay; type: cell-based; conditions: Plasmodium falciparum
[12] = In vitro metabolism in liver microsomes; conditions: dog liver microsomes, 10 μM
[13] = tested on: Na+ channel (site 2); assay: Radioligand binding
[14] = target: T7, Y1 (h) (Homo sapiens, UniProt P25929); assay: Radioligand binding
T7 construct: Cerep
T7 sequence (P25929 whole entry): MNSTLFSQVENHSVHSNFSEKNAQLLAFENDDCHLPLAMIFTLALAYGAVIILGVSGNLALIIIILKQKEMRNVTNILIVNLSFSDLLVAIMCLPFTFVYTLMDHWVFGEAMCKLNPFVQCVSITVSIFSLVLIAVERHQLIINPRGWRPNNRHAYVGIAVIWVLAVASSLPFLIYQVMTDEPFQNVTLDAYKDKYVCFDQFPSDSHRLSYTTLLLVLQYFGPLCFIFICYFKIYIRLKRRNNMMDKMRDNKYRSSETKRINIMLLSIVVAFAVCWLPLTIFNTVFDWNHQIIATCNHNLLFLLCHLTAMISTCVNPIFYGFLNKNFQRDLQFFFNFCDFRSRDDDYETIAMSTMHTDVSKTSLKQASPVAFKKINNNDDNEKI

[15] = target: T8, 5-HT5a (h) (Homo sapiens, UniProt P47898); assay: Radioligand binding
T8 construct: Cerep (contract screening)
T8 sequence (P47898 whole entry): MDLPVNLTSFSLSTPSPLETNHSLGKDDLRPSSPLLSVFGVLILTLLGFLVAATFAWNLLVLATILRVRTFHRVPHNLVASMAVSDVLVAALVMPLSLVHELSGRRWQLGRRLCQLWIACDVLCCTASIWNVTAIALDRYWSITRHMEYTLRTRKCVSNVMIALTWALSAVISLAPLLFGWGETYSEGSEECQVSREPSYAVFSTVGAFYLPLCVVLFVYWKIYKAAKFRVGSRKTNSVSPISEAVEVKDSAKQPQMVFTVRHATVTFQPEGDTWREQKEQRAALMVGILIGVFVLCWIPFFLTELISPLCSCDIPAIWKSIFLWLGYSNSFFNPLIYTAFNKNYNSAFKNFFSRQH

[16] = tested on: P. falciparum strain 3D7; assay: Growth inhibition assay; type: cell-based; conditions: Plasmodium falciparum
[17] = tested on: 401 human kinases; assay: Kinase competition assay, whole panel; type: binding; conditions: 10 μM
Description: The KINOMEscan was carried out by Ambit (San Diego, USA) according to a previously established protocol. The experiment was based on a competition binding assay that quantitatively measures the ability of a compound to compete with an immobilized, active-site directed ligand. The assay is performed by combining three components: DNA-tagged kinase; immobilized ligand; and a test compound. The ability of the test compound to compete with the immobilized ligand is measured via quantitative PCR of the DNA tag.
For most assays, kinase-tagged T7 phage strains were grown in parallel in 24-well blocks in an Escherichia coli host derived from the BL21 strain. E. coli were grown to log-phase and infected with T7 phage from a frozen stock and incubated with shaking at 32 °C until lysis (90–150 min). The lysates were centrifuged (6,000g) and filtered (0.2 μm) to remove cell debris. The remaining kinases were produced in HEK-293 cells (Sigma Aldrich, catalogue number: 85120602) and subsequently tagged with DNA for quantitative PCR detection. […] The liganded beads were blocked with excess biotin and washed with blocking buffer (SeaBlock (Pierce), 1% bovine serum albumin, 0.05% Tween 20 and 1 mM dithiothreitol) to remove unbound ligand and to reduce non-specific phage binding. […] The kinase concentration in the eluates was measured by quantitative PCR.

[18] = tested on: human T-cells; assay: Cytotoxicity; conditions: 50 μM
[19] = target: T9, d2 (DOP) (h) (Homo sapiens, UniProt P41143); assay: Radioligand binding
T9 construct: Cerep

[20] = In vitro metabolism in liver microsomes; conditions: mouse liver microsomes, 10 μM
[21] = target: T10, H1 (h) (Homo sapiens, UniProt P35367); type: binding
T10 construct: Cerep
T10 sequence (P35367 whole entry): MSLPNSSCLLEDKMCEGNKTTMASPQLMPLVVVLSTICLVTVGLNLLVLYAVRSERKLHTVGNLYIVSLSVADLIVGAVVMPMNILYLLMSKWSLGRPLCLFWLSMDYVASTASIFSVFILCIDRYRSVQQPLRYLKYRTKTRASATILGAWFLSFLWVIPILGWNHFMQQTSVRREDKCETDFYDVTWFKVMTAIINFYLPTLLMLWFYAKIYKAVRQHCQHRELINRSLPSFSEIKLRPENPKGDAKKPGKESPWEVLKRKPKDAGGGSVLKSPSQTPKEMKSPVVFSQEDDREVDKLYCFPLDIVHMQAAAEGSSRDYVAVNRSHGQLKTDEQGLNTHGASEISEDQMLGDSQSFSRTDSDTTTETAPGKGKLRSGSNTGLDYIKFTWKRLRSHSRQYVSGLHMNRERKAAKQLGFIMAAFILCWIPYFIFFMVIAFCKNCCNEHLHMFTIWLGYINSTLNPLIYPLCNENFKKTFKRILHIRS

[22] = tested on: P. falciparum strain FCR3; assay: Growth inhibition assay; type: cell-based; conditions: Plasmodium falciparum
[23] = target: CYP2C8 (Homo sapiens, UniProt P10632); assay: CYP inhibition, human liver microsomes; conditions: CYP2C8, amodiaquine to Desethylamodiaquine, 10 µM
[24] = target: T11, 5-HT2A (h) (Homo sapiens, UniProt P28223); assay: Radioligand binding
T11 construct: Cerep (contract screening)
T11 sequence (P28223 whole entry): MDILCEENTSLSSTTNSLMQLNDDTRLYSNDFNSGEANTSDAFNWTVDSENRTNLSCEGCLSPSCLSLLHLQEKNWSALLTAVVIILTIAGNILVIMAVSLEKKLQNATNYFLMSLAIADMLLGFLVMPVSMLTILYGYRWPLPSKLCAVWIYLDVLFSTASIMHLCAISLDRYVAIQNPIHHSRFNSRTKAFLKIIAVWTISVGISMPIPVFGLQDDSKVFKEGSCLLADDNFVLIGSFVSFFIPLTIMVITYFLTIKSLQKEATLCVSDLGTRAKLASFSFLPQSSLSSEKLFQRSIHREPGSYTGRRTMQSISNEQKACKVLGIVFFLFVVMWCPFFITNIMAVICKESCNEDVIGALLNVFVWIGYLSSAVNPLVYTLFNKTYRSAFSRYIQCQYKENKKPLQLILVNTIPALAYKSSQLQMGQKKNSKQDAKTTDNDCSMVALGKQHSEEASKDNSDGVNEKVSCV

[25] = target: T12, 5-HT7 (h) (Homo sapiens, UniProt P34969); assay: Radioligand binding
T12 construct: Cerep (contract screening)

[26] = target: T13, A3 (h) (Homo sapiens, UniProt P0DMS8); assay: Radioligand binding
T13 construct: Cerep (contract study)
T13 sequence (P0DMS8 whole entry): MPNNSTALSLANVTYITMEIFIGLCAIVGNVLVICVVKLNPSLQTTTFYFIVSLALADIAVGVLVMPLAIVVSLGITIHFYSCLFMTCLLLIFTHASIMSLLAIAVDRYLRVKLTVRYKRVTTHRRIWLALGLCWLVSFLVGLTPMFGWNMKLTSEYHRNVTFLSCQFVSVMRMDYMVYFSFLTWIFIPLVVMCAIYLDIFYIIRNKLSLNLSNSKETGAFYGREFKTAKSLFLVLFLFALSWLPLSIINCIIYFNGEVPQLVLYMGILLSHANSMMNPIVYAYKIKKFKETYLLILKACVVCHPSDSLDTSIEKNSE

[27] = tested on: HepG2 cells; assay: Cytotoxicity; conditions: 50 μM
[28] = target: T14, M1 (h) (Homo sapiens, UniProt P11229); type: binding
T14 construct: Cerep

[29] = target: T15, AT1 (h) (Homo sapiens, UniProt P30556); assay: Radioligand binding
T15 construct: Cerep (contract study)
T15 sequence (P30556 whole entry): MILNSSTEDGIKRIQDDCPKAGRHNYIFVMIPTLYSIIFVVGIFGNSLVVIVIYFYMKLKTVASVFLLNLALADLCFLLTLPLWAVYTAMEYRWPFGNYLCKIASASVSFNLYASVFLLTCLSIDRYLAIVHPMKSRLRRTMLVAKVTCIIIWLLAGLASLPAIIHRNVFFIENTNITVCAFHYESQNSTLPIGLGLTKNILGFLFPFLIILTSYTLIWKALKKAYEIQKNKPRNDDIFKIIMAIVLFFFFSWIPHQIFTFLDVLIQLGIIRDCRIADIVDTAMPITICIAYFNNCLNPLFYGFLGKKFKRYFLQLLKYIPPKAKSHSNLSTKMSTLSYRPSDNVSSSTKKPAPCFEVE

[30] = plasma, ip, mouse i.p. 20 mg kg^−1
[31] = plasma, iv, mouse i.v. 2 mg kg^−1

With `CCCCN1CCN(C(=N)c2cccc(NC(=O)Nc3ccc(S(=O)(=O)NCc4ccc(S(N)(=O)=O)cc4)cc3)c2)CC1` [SC81458, 4-(3-(3-((4-butylpiperazin-1-yl)(imino)methyl)phenyl)ureido)-N-(4-sulfamoylbenzyl) benzenesulfonamide] the Remaining enzyme activity [1] was 98%, the “Inhibition of control specific binding” value [2] was 79% and the CL ([3]; mouse i.p. 20 mg kg^−1) was 4,607 ml h^−1 kg^−1. The half-life ([3]; plasma, ip, 20 mg/kg, mouse i.p. 20 mg kg^−1, read-out: t1/2 effective) was 52 min, the half-life ([3]; plasma, ip, 20 mg/kg, mouse i.p. 20 mg kg^−1, read-out: t1/2 terminal) was 860 min and the AUC(0-inf) [3, 30] was 4340 ng·h/mL. The Cmax [3, 30] was 7380 ng/mL, the Tmax [3, 30] was 30 min and the bioavailability ([3]; plasma, ip, mouse i.p. 20 mg kg^−1, read-out: F, relative bioavailability compared to i.v.) was 62%. For the same molecule, the MRT last [3, 30] was 74.4 min, the “time of peak plasma concentration (Cmax)” value [3] was ≤ 30 min and the “in vitro propagation / cytotoxicity” value [4] was “did not affect”. The “Inhibition of control specific binding” value [5] was 28%, the “Inhibition of control specific binding” value [6] was -2% and the “Inhibition of control specific binding” value [7] was 2%. For the same molecule, the “In vitro PCT99.9%” value [8] was 37±4 h and 37±4 (4) h, the “In vitro lag phase” value [8] was <5 h and the “parasites killed within the first 48 h of treatment” value [8] was ≥ 99.9%. The “Inhibition of control specific binding” value [9] was 1%, the “Inhibition of control specific binding” value [10] was -4% and the IC50 [11] was 7 ± 1 nM. For the same molecule, the “remaining after 60 min of incubation” value [12] was 37%, the “Inhibition of control specific binding” value [13] was 45% and the “Inhibition of control specific binding” value [14] was 0%. The “Inhibition of control specific binding” value [15] was 1%, the IC50 [16] was 13 ± 1 nM and the “interference with 401 human kinases” value [17] was “did not interfere”. The “in vitro propagation / cytotoxicity” value [18] was “did not affect”, the “Inhibition of control specific binding” value [19] was 10% and the “remaining after 60 min of incubation” value [20] was 54%. The “Inhibition of control specific binding” value [21] was 6%, the IC50 [22] was 13 ± 8 nM and the Remaining enzyme activity [23] was 95%. For the same molecule, the “Inhibition of control specific binding” value [24] was 17%, the “Inhibition of control specific binding” value [25] was 19% and the “Inhibition of control specific binding” value [26] was 0%. For the same molecule, the “in vitro propagation / cytotoxicity” value [27] was “did not affect”, the “Inhibition of control specific binding” value [28] was 36% and the “Inhibition of control specific binding” value [29] was 11%.
In the case of `COC(=O)N1CCN(C(=N)c2cccc(NC(=O)Nc3ccc(S(=O)(=O)NCc4ccc(S(N)(=O)=O)cc4)cc3)c2)CC1` [SC83288, methyl 4-(imino(3-(3-(4-(N-(4-sulfamoylbenzyl)sulfamoyl)phenyl)ureido)phenyl)methyl) piperazine-1-carboxylate], the Remaining enzyme activity [1] is reported as 101%, the “Inhibition of control specific binding” value [2] is reported as 82% and the VC ([3]; mouse i.v. 2 mg kg^−1) is reported as 0.549 L/kg. For the same molecule, the half-life ([3]; plasma, ip, 10 mg/kg, mice, i.p. 2.5, 5.0 and 10.0 mg kg^−1, read-out: effective half time t1/2) was 29 to 55 min, the half-life ([3]; plasma, iv, 2 mg/kg, mouse i.v. 2 mg kg^−1, read-out: t1/2 effective) was 12 min and the half-life ([3]; plasma, iv, 2 mg/kg, mouse i.v. 2 mg kg^−1, read-out: t1/2 initial) was 9 min. It also gave a half-life ([3]; plasma, iv, 2 mg/kg, mouse i.v. 2 mg kg^−1, read-out: t1/2 terminal) of 43 min, an AUC(0-inf) ([3]; plasma, ip, mouse i.p. 10 mg kg^−1) of 2020 ng·h/mL and an AUC(0-inf) [3, 31] of 891 ng·h/mL. The C0 [3, 31] was 3640 ng/mL, the Cmax [3, 31] was 2560 ng/mL and the Tmax [3, 31] was 5 min. For the same molecule, the clearance [3, 31] was 37.4 mL/min/kg, the MRT last [3, 31] was 16.8 min and the “time of peak plasma concentration (Cmax)” value [3] was ≤ 30 min. The “in vitro propagation / cytotoxicity” value [4] was “did not affect”, the “Inhibition of control specific binding” value [5] was 38% and the “Inhibition of control specific binding” value [6] was 11%. For the same molecule, the “Inhibition of control specific binding” value [7] was 10%, the “In vitro PCT99.9%” value [8] was 51±6 h and 51±6 (4) h and the “In vitro lag phase” value [8] was <5 h. For the same molecule, the “parasites killed within the first 48 h of treatment” value [8] was ≥ 99.9%, the “Inhibition of control specific binding” value [9] was 0% and the “Inhibition of control specific binding” value [10] was -5%. For the same molecule, the IC50 [11] was 4 ± 1 nM, the “remaining after 60 min of incubation” value [12] was 83% and the “Inhibition of control specific binding” value [13] was 19%. For the same molecule, the “Inhibition of control specific binding” value [14] was 0%, the “Inhibition of control specific binding” value [15] was 16% and the IC50 [16] was 8 ± 2 nM. For the same molecule, the “interference with 401 human kinases” value [17] was “did not interfere”, the “in vitro propagation / cytotoxicity” value [18] was “did not affect” and the “Inhibition of control specific binding” value [19] was 1%. For the same molecule, the “remaining after 60 min of incubation” value [20] was 96%, the “Inhibition of control specific binding” value [21] was 8% and the IC50 [22] was 6 ± 1 nM. For the same molecule, the Remaining enzyme activity [23] was 89%, the “Inhibition of control specific binding” value [24] was 30% and the “Inhibition of control specific binding” value [25] was 4%. For the same molecule, the “Inhibition of control specific binding” value [26] was 0%, the “in vitro propagation / cytotoxicity” value [27] was “did not affect” and the “Inhibition of control specific binding” value [28] was 75%. The “Inhibition of control specific binding” value [29] was 6%.
